According to patent US7317006B2, “Thieno[2,3-d]pyrimidines with combined LH and FSH agonistic activity” (N.V. Organon, priority 2001, dated 2008):
pEC50: −log10 of the molar value.

Legend:
human LH receptor = target: T1, human LH receptor (Homo sapiens, UniProt P22888); test: CHO-LH in vitro bioactivity (CRE-luciferase reporter); assay type: cell-based; details: CHO cells stably transfected with the human LH receptor, read-out: EC50 CHO LHR
T1 construct: expressed in transfected cells; host or cells: CHO cells, cotransfected with CRE/promotor-luciferase reporter
T1 sequence (P22888 27-699): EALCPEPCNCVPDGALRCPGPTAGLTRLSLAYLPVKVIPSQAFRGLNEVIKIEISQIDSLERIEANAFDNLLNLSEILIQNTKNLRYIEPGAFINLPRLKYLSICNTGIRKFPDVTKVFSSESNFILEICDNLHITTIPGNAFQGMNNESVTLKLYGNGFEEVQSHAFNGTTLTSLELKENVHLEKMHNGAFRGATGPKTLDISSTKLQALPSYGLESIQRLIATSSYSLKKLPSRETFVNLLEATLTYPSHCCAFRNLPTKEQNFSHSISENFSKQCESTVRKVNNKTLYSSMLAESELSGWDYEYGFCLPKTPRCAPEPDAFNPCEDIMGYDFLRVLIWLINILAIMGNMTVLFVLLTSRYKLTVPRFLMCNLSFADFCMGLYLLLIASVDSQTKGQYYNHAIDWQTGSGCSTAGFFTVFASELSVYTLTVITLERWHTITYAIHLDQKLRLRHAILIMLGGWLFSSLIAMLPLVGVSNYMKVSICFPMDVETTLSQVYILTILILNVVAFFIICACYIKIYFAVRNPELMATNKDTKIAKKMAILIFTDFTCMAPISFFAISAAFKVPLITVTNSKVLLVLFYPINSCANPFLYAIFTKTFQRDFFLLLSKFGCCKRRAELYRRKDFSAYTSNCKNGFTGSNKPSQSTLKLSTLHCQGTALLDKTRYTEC
Procedure: (§1) It has been shown that compounds of the above mentioned formula I show agonistic LH and FSH activity. […] Typically the FSH activity ranges from an activity of about 1% of the LH agonist stimulation to about 10% of the LH agonist stimulation.
(§2) LH agonistic activity of compounds were tested in Chinese Hamster Ovary (CHO) cells stably transfected with the human receptor and cotransfected with a cAMP responsive element (CRE)/promotor directing the expression of a firefly luciferase reporter gene. Binding of ligand to the Gs-coupled LH receptor will result in an increase of cAMP, which in turn will induce an increased transactivation of the luciferase reporter construct. The luciferase signal was quantified using a luminescence counter. For test compounds, EC50 values (concentration of test compound causing half-maximal (50%) stimulation) were calculated. For that purpose the software program GraphPad PRISM, version 3.0 (GraphPad software Inc., San Diego) was used.

immature female mice = test: In vivo bioactivity: ovulation induction in immature mice; details: immature female mice primed with urinary FSH (Humegon 12.5 IU/animal), ova in the oviduct counted 24 hours after treatment
Procedure: To measure LH in vivo activity of compounds, ovulation induction in immature mice can be studied. In this assay immature female mice are primed with urinary FSH and approximately 48 hours later treated with a LH agonistic compound. The animals are killed after LH agonist treatment and the number of ova in the oviduct is microscopically assessed.
To measure in vivo activity of LH/FSH receptor agonistic compounds ovulation induction in immature mice was studied. In this assay immature female mice were primed with urinary FSH (Humegon 12.5 IU/animal). Approximately 48 hours later the animals were treated with a LH/FSH agonistic compound at a dose-level of 50 mg/kg. The animals were killed 24 hours after LH/FSH agonist treatment and the number of ova in the oviduct was microscopically assessed.

human FSH receptor = target: T2, human FSH receptor (Homo sapiens, UniProt P23945); test: CHO-FSH in vitro bioactivity (CRE-luciferase reporter); assay type: cell-based; details: CHO cells transfected with the human FSH receptor and luciferase reporter gene; read-out: EC50 CHO FSHR
T2 construct: expressed in transfected cells; host or cells: CHO cells, transfected with luciferase reporter gene
T2 sequence (P23945 18-695): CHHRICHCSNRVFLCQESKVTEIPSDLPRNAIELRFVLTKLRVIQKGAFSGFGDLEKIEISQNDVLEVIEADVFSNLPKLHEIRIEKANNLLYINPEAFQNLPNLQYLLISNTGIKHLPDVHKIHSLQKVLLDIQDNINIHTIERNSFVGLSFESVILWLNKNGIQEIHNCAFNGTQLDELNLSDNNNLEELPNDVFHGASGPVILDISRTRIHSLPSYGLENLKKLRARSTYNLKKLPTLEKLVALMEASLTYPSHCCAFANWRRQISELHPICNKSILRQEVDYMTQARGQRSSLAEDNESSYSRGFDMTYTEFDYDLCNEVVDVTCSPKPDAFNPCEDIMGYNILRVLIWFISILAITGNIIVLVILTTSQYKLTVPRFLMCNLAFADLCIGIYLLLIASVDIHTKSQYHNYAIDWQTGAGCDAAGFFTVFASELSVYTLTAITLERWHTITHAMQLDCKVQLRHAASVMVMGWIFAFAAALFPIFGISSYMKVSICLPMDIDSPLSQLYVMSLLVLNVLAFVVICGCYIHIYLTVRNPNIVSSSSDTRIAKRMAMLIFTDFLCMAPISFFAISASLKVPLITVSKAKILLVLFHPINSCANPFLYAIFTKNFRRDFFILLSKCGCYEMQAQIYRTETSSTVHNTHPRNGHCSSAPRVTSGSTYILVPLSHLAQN
Procedure: as §1, §2
In a similar way FSH agonistic activity of compounds was tested in CHO cells transfected with the luciferase reporter gene and the human FSH receptor.

SMILES | pEC50 (human LH receptor) | pEC50 (human FSH receptor) | mean no. of ova (50 mg/kg p.o.) (immature female mice)
CSc1nc(-c2cccc(NC(=O)CN3CCC3)c2)c2c(N)c(C(=O)NC(C)(C)C)sc2n1 [Example 1, tert-Butyl 5-amino-2-methylthio-4-(3-(2-(azetidin-1-yl)-acetamido)-phenyl)-thieno[2,3-d]pyrimidine-6-carboxamide] | 8.41 | 6.34 | 1.6
CSc1nc(-c2cccc(NC(=O)CN3CCCC3)c2)c2c(N)c(C(=O)NC(C)(C)C)sc2n1 [Example 5, tert-Butyl 5-amino-2-methylthio-4-(3-(2-(pyrrolidin-1-yl)-acetamido)-phenyl)-thieno[2,3-d]pyrimidine-6-carboxamide] | 8.18 | 6.32 | 
CSc1nc(-c2cccc(NC(=O)CN3CCNCC3)c2)c2c(N)c(C(=O)NC(C)(C)C)sc2n1 [Example 6, tert-Butyl 5-amino-2-methylthio-4-(3-(2-(piperazin-1-yl)-acetamido)-phenyl)-thieno[2,3-d]pyrimidine-6-carboxamide] | 8.50 | 6.82 | 

The remaining molecules from weak to strong by pEC50 (human LH receptor), led by results:

pEC50 (human LH receptor) | pEC50 (human FSH receptor) | SMILES | mean no. of ova (50 mg/kg p.o.) (immature female mice)
8.10 | 5.98 | CSc1nc(-c2cccc(NC(=O)CN3CCSCC3)c2)c2c(N)c(C(=O)NC(C)(C)C)sc2n1 [Example 3, tert-Butyl 5-amino-2-methylthio-4-(3-(2-(thiomorpholin-4-yl)-acetamido)-phenyl)-thieno[2,3-d]pyrimidine-6-carboxamide] | 19.8
8.18 | 6.70 | CSc1nc(-c2cccc(NC(=O)CN3CCCCC3)c2)c2c(N)c(C(=O)NC(C)(C)C)sc2n1 [Example 4, tert-Butyl 5-amino-2-methylthio-4-(3-(2-(piperidin-1-yl)-acetamido)-phenyl)-thieno[2,3-d]pyrimidine-6-carboxamide] | 
8.65 | 7.38 | CSc1nc(-c2cccc(NC(=O)CN3CCOCC3)c2)c2c(N)c(C(=O)NC(C)(C)C)sc2n1 [Example 2, tert-Butyl 5-amino-2-methylthio-4-(3-(2-(morpholin-4-yl)-acetamido)-phenyl)-thieno[2,3-d]pyrimidine-6-carboxamide] | 9.3
